Measured values reported in ChEMBL document CHEMBL5370624 (J Med Chem, 2023).
Activity calls are given as the source filed them. No cut-off for these calls is given here.

How the values were obtained:
PBMC = assay: Cytotoxicity against human PBMC cells assessed as reduction in cell viability upto 10 ug/ml incubated for 18 to 24 hrs by PrestoBlue reagent based assay; format: toxicity; conditions: time 18-24 hrs, dose < 10 µg/ml
Mus musculus [1] = assay: Immuno-adjuvant activity in H3N2-split A/Victoria/210/2009 influenza virus-immunized BALB/c mouse model assessed as increase in influenza specific serum IgG2a titer level at 0.001 to 0.1 ug,IM administered on day 0 and 14 and measured after 28 days by ELISA; format: functional, organism-based; conditions: dose 0.001-0.1 µg, time 28.0 day
[2] = Aqueous stability of the compound assessed as drug degradation at 2 to 8 degreeC and measured upto 12 months by LC-MS analysis; format: physicochemical; conditions: buffer, 8760 h
[3] = Aqueous stability of the compound assessed as drug degradation at 40 degreeC and measured upto 12 months by LC-MS analysis; format: physicochemical; conditions: for Stability: buffer, 8760 h
Toll-like receptor 4 [4] = target: T1, Toll-like receptor 4 (Homo sapiens, UniProt O00206); assay: Agonist activity at TLR4 in human PBMC cells assessed as induction of MIP-1beta release incubated for 20 hrs by ELISA; format: cell-based
T1 sequence (O00206 whole entry): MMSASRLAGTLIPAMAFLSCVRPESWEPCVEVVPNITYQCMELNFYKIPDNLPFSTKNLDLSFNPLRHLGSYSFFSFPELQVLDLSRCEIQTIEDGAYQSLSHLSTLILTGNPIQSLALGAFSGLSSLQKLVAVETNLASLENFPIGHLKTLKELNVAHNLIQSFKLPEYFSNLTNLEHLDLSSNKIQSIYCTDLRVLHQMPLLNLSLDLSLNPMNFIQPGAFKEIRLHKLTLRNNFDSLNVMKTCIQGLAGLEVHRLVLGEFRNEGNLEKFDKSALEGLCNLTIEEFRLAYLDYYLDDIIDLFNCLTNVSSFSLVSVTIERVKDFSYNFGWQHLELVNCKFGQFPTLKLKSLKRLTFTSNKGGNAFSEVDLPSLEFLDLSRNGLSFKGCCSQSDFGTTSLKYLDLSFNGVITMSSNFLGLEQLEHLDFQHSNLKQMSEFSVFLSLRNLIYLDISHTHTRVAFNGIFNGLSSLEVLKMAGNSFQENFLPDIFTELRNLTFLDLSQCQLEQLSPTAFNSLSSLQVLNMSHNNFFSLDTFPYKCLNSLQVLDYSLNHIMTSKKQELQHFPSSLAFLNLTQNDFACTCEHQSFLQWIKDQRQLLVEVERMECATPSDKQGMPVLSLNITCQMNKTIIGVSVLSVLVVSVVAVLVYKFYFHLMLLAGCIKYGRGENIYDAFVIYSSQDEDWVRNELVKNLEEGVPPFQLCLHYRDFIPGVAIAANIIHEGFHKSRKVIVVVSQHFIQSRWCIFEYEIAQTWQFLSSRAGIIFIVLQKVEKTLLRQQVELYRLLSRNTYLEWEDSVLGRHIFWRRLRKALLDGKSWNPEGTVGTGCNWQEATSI

Toll-like receptor 4 [5] = target: T1, Toll-like receptor 4; assay: Agonist activity at TLR4 in human PBMC cells assessed as induction of IL-1beta release incubated for 20 hrs by ELISA; format: cell-based
[6] = Toxicity in H3N2-split A/Victoria/210/2009 influenza virus-immunized BALB/c mouse model assessed as abnormality at 0.001 to 0.1 ug,IM administered on day 0 and 14 and measured after 28 days; conditions: in vivo, 672 h, dose 0.001-0.1 µg, time 28 day
Toll-like receptor 4 [7] = target: T2, Toll-like receptor 4 (Mus musculus, UniProt Q9QUK6); assay: Agonist activity at TLR4 in mouse RAW264.7 cells assessed as induction of MIP-1beta release incubated for 24 hrs by ELISA; format: cell-based
T2 sequence (Q9QUK6 whole entry): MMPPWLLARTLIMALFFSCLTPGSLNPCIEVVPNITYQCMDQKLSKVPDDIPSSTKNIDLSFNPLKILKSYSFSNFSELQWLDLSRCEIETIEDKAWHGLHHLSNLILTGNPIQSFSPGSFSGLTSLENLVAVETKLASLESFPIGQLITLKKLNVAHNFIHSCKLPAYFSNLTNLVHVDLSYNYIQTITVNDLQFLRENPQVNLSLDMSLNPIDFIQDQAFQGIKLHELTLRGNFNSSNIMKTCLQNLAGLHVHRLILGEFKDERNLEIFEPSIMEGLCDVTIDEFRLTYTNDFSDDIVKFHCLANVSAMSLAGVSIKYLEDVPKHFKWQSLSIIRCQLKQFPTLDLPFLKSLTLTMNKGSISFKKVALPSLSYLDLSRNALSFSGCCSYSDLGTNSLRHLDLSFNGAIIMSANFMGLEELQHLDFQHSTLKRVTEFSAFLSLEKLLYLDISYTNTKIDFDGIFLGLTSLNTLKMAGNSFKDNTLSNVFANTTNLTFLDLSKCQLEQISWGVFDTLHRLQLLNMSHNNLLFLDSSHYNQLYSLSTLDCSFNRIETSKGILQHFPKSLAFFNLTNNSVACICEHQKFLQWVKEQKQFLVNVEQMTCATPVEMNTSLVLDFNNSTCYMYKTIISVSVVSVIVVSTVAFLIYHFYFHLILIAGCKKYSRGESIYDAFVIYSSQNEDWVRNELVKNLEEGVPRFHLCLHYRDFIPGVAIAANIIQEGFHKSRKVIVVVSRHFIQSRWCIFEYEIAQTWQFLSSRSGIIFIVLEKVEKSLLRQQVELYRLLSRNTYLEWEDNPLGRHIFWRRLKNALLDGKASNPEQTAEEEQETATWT

[8] = Toxicity in H3N2-split A/Victoria/210/2009 influenza virus-immunized BALB/c mouse model assessed as reactogenicity at 0.001 to 0.1 ug,IM administered on day 0 and 14 and measured after 28 days; conditions: in vivo, 672 h, dose 0.001-0.1 µg, time 28 day
Mus musculus [9] = assay: Immuno-adjuvant activity in H3N2-split A/Victoria/210/2009 influenza virus-immunized BALB/c mouse model assessed as increase in influenza specific serum IgG titer level at 0.001 to 0.1 ug,IM administered on day 0 and 14 and measured after 28 days by ELISA; format: functional, organism-based; conditions: dose 0.001-0.1 µg, time 28.0 day
[10] = Aqueous stability of the compound assessed as drug degradation at 2 to 8 degreeC and measured upto 12 months by RP-HPLC analysis; format: physicochemical; conditions: buffer, 8760 h
Toll-like receptor 4 [11] = target: T1, Toll-like receptor 4; assay: Agonist activity at TLR4 in human PBMC cells assessed as induction of RANTES release incubated for 20 hrs by ELISA; format: cell-based
Toll-like receptor 4 [12] = target: T2, Toll-like receptor 4; assay: Agonist activity at mouse TLR4 in human HEK-Blue mTLR4 cells assessed as NF-kappaB activation incubated for 48 hrs by SEAP reporter gene based Quanti-blue assay; format: cell-based
Toll-like receptor 4 [13] = target: T1, Toll-like receptor 4; assay: Agonist activity at human TLR4 in human HEK-Blue hTLR4 cells assessed as NF-kappaB activation incubated for 48 hrs by SEAP reporter gene based Quanti-blue assay; format: cell-based
Mus musculus [14] = assay: Immuno-adjuvant activity in H3N2-split A/Victoria/210/2009 influenza virus-immunized BALB/c mouse model assessed as increase in influenza specific serum IgG1 titer level at 0.001 to 0.1 ug,IM administered on day 0 and 14 and measured after 28 days by ELISA; format: functional, organism-based; conditions: dose 0.001-0.1 µg, time 28.0 day
Mus musculus [15] = organism: Mus musculus; assay: Immuno-adjuvant activity in H3N2-split A/Victoria/210/2009 influenza virus-immunized BALB/c mouse model assessed as increase in influenza specific serum IgG1 titer level at 0.001 to 0.1 ug,IM and measured after 14 days by ELISA; format: functional, organism-based; conditions: dose 0.001-0.1 µg, time 14.0 day
Toll-like receptor 4 [16] = target: T1, Toll-like receptor 4; assay: Agonist activity at TLR4 in human MONO-MAC-6 cells assessed as induction of MIP-1beta release incubated for 24 hrs by ELISA; format: cell-based
Toll-like receptor 4 [17] = target: T1, Toll-like receptor 4; assay: Agonist activity at TLR4 in human PBMC cells assessed as induction of TNFalpha release incubated for 20 hrs by ELISA; format: cell-based
Mus musculus [18] = organism: Mus musculus; assay: Immuno-adjuvant activity in H3N2-split A/Victoria/210/2009 influenza virus-immunized BALB/c mouse model assessed as increase in influenza specific serum IgG titer level at 0.001 to 0.1 ug,IM and measured after 14 days by ELISA; format: functional, organism-based; conditions: dose 0.001-0.1 µg, time 14.0 day
Mus musculus [19] = organism: Mus musculus; assay: Immuno-adjuvant activity in H3N2-split A/Victoria/210/2009 influenza virus-immunized BALB/c mouse model assessed as increase in influenza specific serum IgG2a titer level at 0.001 to 0.1 ug,IM and measured after 14 days by ELISA; format: functional, organism-based; conditions: dose 0.001-0.1 µg, time 14.0 day
[20] = Aqueous stability of the compound assessed as drug degradation at 40 degreeC and measured after 12 months by RP-HPLC analysis; format: physicochemical; conditions: aqueous solution, read-out: Drug degradation
[21] = Aqueous stability of the compound assessed as drug degradation at 2 to 8 degreeC and measured after 1 month by LC-MS analysis; format: physicochemical; conditions: buffer, 730 h; time 1 months
Mus musculus [22] = assay: Immuno-adjuvant activity in H3N2-A/HK/68 influenza virus-immunized BALB/c mouse model assessed as increase in survival rate at 10 ug,INH administered 48hrs prior to influenza challenge and measured after 18 days; format: functional; conditions: dose 10 µg, time 18 day
[23] = Toxicity in H3N2-A/HK/68 influenza virus-immunized BALB/c mouse model assessed as change in body temperature at 1 to 10 ug,INH administered 48hrs prior to influenza challenge and measured after 18 days; conditions: in vivo, inhaled_or_intranasal, 432 h, dose 1-10 µg, time 18 day
[24] = Toxicity in H3N2-A/HK/68 influenza virus-immunized BALB/c mouse model assessed as body weight change at 1 to 10 ug,INH administered 48hrs prior to influenza challenge and measured after 18 days; conditions: in vivo, inhaled_or_intranasal, 432 h, dose 1-10 µg, time 18 day
[25] = Toxicity in H3N2-A/HK/68 influenza virus-immunized BALB/c mouse model assessed as disease index at 1 to 10 ug,INH administered 48hrs prior to influenza challenge and measured after 18 days; conditions: in vivo, inhaled_or_intranasal, 432 h, dose 1-10 µg, time 18 day
Mus musculus [26] = assay: Immuno-adjuvant activity in H3N2-A/HK/68 influenza virus-immunized BALB/c mouse model assessed as increase in survival rate at 1 ug,INH administered 48hrs prior to influenza challenge and measured after 18 days; format: functional; conditions: dose 1 µg, time 18 day

SMILES	Activity (Mus musculus [1])	Stability [2]	Stability [3]	EC50 (Toll-like receptor 4 [4])	EC50 (Toll-like receptor 4 [5])	Activity [6]	EC50 (Toll-like receptor 4 [7])	Activity [8]	Activity (Mus musculus [9])	Stability [10]	EC50 (Toll-like receptor 4 [11])	EC50 (Toll-like receptor 4 [12])	EC50 (Toll-like receptor 4 [13])	Activity (Mus musculus [14])	Activity (Mus musculus [15])	EC50 (Toll-like receptor 4 [16])	EC50 (Toll-like receptor 4 [17])	Activity (Mus musculus [18])	also measured
CCCCCCCCCCC[C@H](CC(=O)N[C@H]1[C@H](OC[C@H](NC(=O)C[C@@H](CCCCCCCCCCC)OC(=O)CCCCCCCCC)C(=O)O)O[C@H](CO)[C@@H](OP(=O)(O)O)[C@@H]1OC(=O)C[C@@H](CCCCCCCCCCC)OC(=O)CCCCCCCCC)OC(=O)CCCCCCCCC	–	–	–	–	–	–	–	–	–	–	–	–	–	–	–	–	–	–	Activity (PBMC): Non-Toxic
CCCCCCCCCCC[C@H](CC(=O)N[C@H]1[C@H](OC[C@H](NC(=O)C[C@@H](CCCCCCCCCCC)OCCCCCCCCCC)C(=O)O)O[C@H](CO)[C@@H](OS(=O)(=O)O)[C@H]1NC(=O)C[C@@H](CCCCCCCCCCC)OCCCCCCCCCC)OCCCCCCCCCC.CCN(CC)CC	Active	Stable	Stable	0.24 nM	0.97 nM	Non-Toxic	0.04 nM	Non-Toxic	Active	Stable	0.46 nM	0.68 nM	26.3 nM	Active	Dose-Dependent Effect	0.65 nM	6.88 nM	Dose-Dependent Effect	–
CCCCCCCCCCC[C@H](CC(=O)NCCO[C@@H]1O[C@H](CO)[C@@H](OS(=O)(=O)O)[C@@H](NC(=O)C[C@@H](CCCCCCCCCCC)OC(=O)CCCCCCCCC)[C@H]1NC(=O)C[C@@H](CCCCCCCCCCC)OC(=O)CCCCCCCCC)OC(=O)CCCCCCCCC.CCN(CC)CC	Active	Stable	–	2.87 nM	20.4 nM	Non-Toxic	0.31 nM	Non-Toxic	Active	Stable	7.01 nM	2.64 nM	449 nM	Active	Dose-Dependent Effect	39.5 nM	116 nM	Dose-Dependent Effect	Activity (Mus musculus [19]): Dose-Dependent Effect; degraded at 8760 h ([3]; aqueous solution, read-out: Drug degradation): 8%; degraded at 8760 h [20]: < 10%
CCCCCCCCCCCCCCCC(=O)O[C@H](CCCCCCCCCCC)CC(=O)N[C@@H]1[C@@H](O)[C@H](O)[C@@H](CO[C@@H]2O[C@H](CO)[C@@H](OP(=O)(O)O)[C@H](OC(=O)C[C@@H](CCCCCCCCCCC)OC(=O)CCCCCCCCCCCCC)[C@H]2NC(=O)C[C@@H](CCCCCCCCCCC)OC(=O)CCCCCCCCCCC)O[C@@H]1O	–	–	–	23.7 nM	42.4 nM	–	3.73 nM	–	–	–	31.5 nM	6.54 nM	246 nM	–	–	6.37 nM	200 nM	–	–
CCCCCCCCCCC[C@H](CC(=O)NCCO[C@@H]1O[C@H](CO)[C@@H](OP(=O)(O)O)[C@H](OC(=O)C[C@@H](CCCCCCCCCCC)OC(=O)CCCCCCCCC)[C@H]1NC(=O)C[C@@H](CCCCCCCCCCC)OC(=O)CCCCCCCCC)OC(=O)CCCCCCCCC	–	–	–	1.94 nM	2.62 nM	–	0.48 nM	–	–	–	1.26 nM	0.43 nM	173 nM	–	–	6.75 nM	53.7 nM	–	Stability [21]: Stable
CCCCCCCCCCC[C@H](CC(=O)NCCO[C@@H]1O[C@H](CO)[C@@H](OP(=O)(O)O)[C@@H](NC(=O)C[C@@H](CCCCCCCCCCC)OC(=O)CCCCCCCCC)[C@H]1NC(=O)C[C@@H](CCCCCCCCCCC)OC(=O)CCCCCCCCC)OC(=O)CCCCCCCCC.CCN(CC)CC	–	Stable	Stable	1.61 nM	8.77 nM	–	0.26 nM	–	–	Stable	3.68 nM	0.37 nM	91.9 nM	–	–	1.65 nM	28 nM	–	–
CCCCCCCCCCC[C@H](CC(=O)N[C@H]1[C@H](OC[C@H](NC(=O)C[C@@H](CCCCCCCCCCC)OCCCCCCCCCC)C(=O)O)O[C@H](CO)[C@@H](OP(=O)(O)O)[C@H]1NC(=O)C[C@@H](CCCCCCCCCCC)OCCCCCCCCCC)OCCCCCCCCCC.CCN(CC)CC	Active	Stable	Stable	0.13 nM	0.28 nM	Non-Toxic	0.02 nM	Non-Toxic	Active	Stable	0.14 nM	0.15 nM	7.86 nM	Active	Dose-Dependent Effect	0.38 nM	2.6 nM	Dose-Dependent Effect	Activity (Mus musculus [19]): Dose-Dependent Effect; Activity (PBMC): Non-Toxic; Survival (Mus musculus [22]): 80%; Activity [23]: Non-Toxic; Activity [24]: Non-Toxic; Activity [25]: Non-Toxic; Survival (Mus musculus [26]): 40%
CCCCCCCCCCCCCC(=O)O[C@H](CCCCCCCCCCC)CC(=O)O[C@@H]1[C@@H](NC(=O)C[C@H](CCCCCCCCCCC)OC(=O)CCCCCCCCCCCCC)[C@H](OC[C@H]2O[C@H](O)[C@H](NC(=O)C[C@H](O)CCCCCCCCCCC)[C@@H](OC(=O)C[C@H](O)CCCCCCCCCCC)[C@@H]2O)O[C@H](CO)[C@H]1OP(=O)(O)O	–	–	–	0.76 nM	2.11 nM	–	0.49 nM	–	–	–	1.92 nM	1.4 nM	6.23 nM	–	–	0.99 nM	10.4 nM	–	–
